Measured values published in patent publication US8512707B2, “Methods of treating drug-resistant cancers” (Seattle Genetics, Inc., priority 2006, dated 2013).
Read-outs that look alike come from different tables or passages of the source. Square brackets hold non-standard residues; d marks the D form. Peptide text beside a SMILES is read from it. * marks the point of attachment. Dolaproine = CO[C@@H]([C@@H]1CCCN1)[C@@H](C)C(=O)O; Dil = CC[C@H](C)[C@H](NC)[C@@H](CC(=O)O)OC; X1 = C[C@@H](N*)[C@@H](O)c1ccccc1; NMeV = CN[C@H](C(=O)O)C(C)C

Tests used:
NCI-H69 and NCI-H69/LX-4 = experiment: Drug sensitivity of parental and drug resistant subline pair (resazurin); type: cell-based, human; details: IC50 of resistant line divided by IC50 of parental line, 96 hr
Procedure: (§1) The following parental and drug resistant cell lines were used to determine their MMAF-drug sensitivity.
(§2) The activity of various drugs against parental and drug resistant subline pairs was tested. The pairs of cell lines tested were A2780 and A2780adr; MES-SA and MES-SA/Dx5; NCI-H69 and NCI-H69/LX-4; and HL60 and HL60/RV. Cell lines were plated and incubated 24 hr. Culture medium containing serial dilutions of the drugs doxorubicin, vincristine, cisplatin, dolastatin 10 or MMAF were then added. The cultures were incubated to 96 hr and labeled with resazurin. Sensitivity to each drug was measured by determining the IC50 of the parent and drug resistant subline pair. The drug resistance (as “fold resistance”) was determined from the IC50 value of the resistant cell line divided by the IC50 value of the parental line. Mean fold resistance is the average across the cell line panel.

A2780 and A2780adr = experiment: as above; type: cell-based, human; details: IC50 of resistant line divided by IC50 of parental line, 96 hr
Procedure: as §1, §2

NCI/ADR-RES cells = experiment: Cell killing by free drugs or MMAF-ADCs with or without verapamil; type: cell-based; details: for Fold Difference: IC50 drug alone divided by IC50 drug plus verapamil; for IC50: Homo sapiens
Procedure: NCI/ADR-RES cells were plated and allowed to adhere. Neat culture medium or medium containing 40 μM verapamil was added, and the cultures were incubated for 4 hr. Serial dilutions of the free drugs (doxorubicin, cisplatin or MMAF) or MMAF ADCs (cBR96-vcMMAF or mOKT9-vcMMAF) were then added. The cultures were incubated to 96 hr and labeled with resazurin. Referring to Table 7, the values are the IC50 in […] (doxorubicin, cisplatin, MMAF) or […] (cBR96-vcMMAF, mOKT9-vcMMAF) determined from 4-parameter curve fits. The fold difference is determined by dividing the IC50 from the drug alone treatment by that of the drug treated plus verapamil cultures.

[1] = tested on: HCT-15 (colon carcinoma) cells; experiment: Alteration of drug potency by verapamil, free drugs; type: cell-based; details: for Fold Difference: IC50 drug alone divided by IC50 verapamil plus drug, HCT-15; for IC50: HCT-15, drug alone, 96 hr, resazurin
Procedure: Verapamil is a known inhibitor of the P-gp transporter. The following study was conducted to measure the effect of verapamil on P-gp-mediated transport of doxorubicin, vincristine, cisplatin and MMAF.
HCT-15 (colon carcinoma) cells were plated and allowed to adhere to the plates. Neat culture medium or medium containing 40 μM verapamil was added, and the cultures were incubated for 4 hr. Serial dilutions of doxorubicin, vincristine, cisplatin or MMAF were then added. The cultures were incubated to 96 hr and labeled with resazurin. Referring to Table 4, the values shown are the IC50 determined from 4-parameter curve fits. The fold difference was determined by dividing the IC50 of the drug alone treatment by that of the verapamil plus drug treated cultures.

[2] = tested on: parental and drug resistant cell line pairs; experiment: Drug sensitivity across the panel of parental/drug resistant cell line pairs; type: cell-based; details: for Mean Fold Resistance: average across the cell line panel; for difference in sensitivity of parent and resistant line: statement over all cell line pairs of Table 3
Procedure: as §1, §2

MES-SA and MES-SA/Dx5 = experiment: Drug sensitivity of parental and drug resistant subline pair (resazurin); type: cell-based; details: IC50 of resistant line divided by IC50 of parental line, 96 hr
Procedure: as §1, §2

HL60 and HL60/RV = experiment: as above; type: cell-based; details: IC50 of resistant line divided by IC50 of parental line, 96 hr
Procedure: as §1, §2

H69 and H69/LX4 = experiment: Cytotoxic effects on H69 and its P-glycoprotein overexpressing counterpart; type: cell-based, human; details: free drugs, 6 days, Alamar Blue (FIG. 2A, 2B)
Procedure: (§3) Log phase cultures of cells were collected and cells plated at seeding densities ranging from 500-10,000 cells/well according to pre-determined conditions. After incubating 24 h to allow surface protein reconstitution, serial dilutions of test molecules were added and cultures incubated a further 4-6 days depending on cell line. Assessment of cellular growth and data reduction to generate IC50 values was done using Alamar Blue (Biosource International, Camarillo, Calif.) dye reduction assay as previously described, according to previously published methods (Doronina et al., supra; Hamblett et al., supra; Law et al., 2004, Clin. Cancer Res. 10:7842-51; Francisco et al., supra). Briefly, a 40% solution (wt/vol) of Alamar Blue was freshly prepared in complete media just before cultures were added. Ninety-two hours after drug exposure, Alamar Blue solution was added to cells to constitute 10% culture volume. Cells were incubated for 4 h, and dye reduction was measured on a Fusion HT fluorescent plate reader (Packard Instruments, Meriden, Conn.).

[3] = tested on: HCT-15 (colon carcinoma) cells; experiment: Alteration of drug potency by verapamil, free drugs; type: cell-based; details: read-out: IC50 +10 μM Verapamil, HCT-15, verapamil 4 hr before drug, 96 hr, resazurin
[4] = tested on: 786-O renal cell carcinoma; experiment: In vitro growth inhibition (Alamar Blue); type: cell-based; details: Table 8, free auristatins, 96 h
Procedure: as §3

[5] = tested on: Caki-1 renal cell carcinoma; experiment: In vitro growth inhibition (Alamar Blue); type: cell-based; details: Table 8, free auristatins, 96 h
Procedure: as §3

[6] = tested on: H3396 breast carcinoma cells; experiment: In vitro growth inhibition (Alamar Blue); type: cell-based; details: Table 8, free auristatins, 96 h
Procedure: as §3

Karpas 299 cells = experiment: In vitro growth inhibition (Alamar Blue); type: cell-based, human; details: 96 h
Procedure: as §3

hematologic cell lines = details: previously displayed (Doronina et al.; Law et al.); cited from earlier work
[7] = Maximum tolerated dose of free drugs in mice; type: in vivo; details: free drug
Description: The synthesis of MMAE proceeded through a solution-phase route involving the coupling of the amino-protected N-terminal trimer to the C-terminal dimer. Due to the convergent nature of the process, it was possible to produce a large number of auristatins with varied solubilities, potencies and pharmacokinetic properties. […] MMAF-OMe is a prodrug of MMAF (FIG. 1), with the potential of having facilitated intracellular uptake due to the presence of a neutral C-terminus. In addition, intracellular ester hydrolysis of MMAF-OMe should rapidly generate MMAF, a C-terminally charged molecule expected to have impaired membrane translocation capabilities. […] In addition, the maximum tolerated dose in mice of MMAF (>16 mg/kg) was much higher than MMAE (1 mg/kg). Thus, MMAF was of great interest for targeted delivery, since the free drug had attenuated potency, lower toxicity, and much higher aqueous solubility compared to MMAE. Facilitated intracellular transport was expected to greatly enhance its activity.

Aqueous solubility = type: physicochemical
L540cy = experiment: In vitro growth inhibition (Alamar Blue); type: cell-based; details: 96 h, ADC concentrations represented by the drug component
Procedure: as §3
(§4) Cells were exposed to the ADCs continuously for 96 h, and the cytotoxic effects, as determined by Alamar Blue conversion, were compared to those of free MMAF.

RPMI 6666 = experiment: In vitro growth inhibition (Alamar Blue); type: cell-based; details: 96 h, ADC concentrations represented by the drug component
Procedure: as §3, §4

HH = experiment: In vitro growth inhibition (Alamar Blue); type: cell-based; details: 96 h, ADC concentrations represented by the drug component
Procedure: as §3, §4

[8] = tested on: panel of CD30 positive and negative hematologic cell lines; experiment: In vitro growth inhibition, panel of hematologic cell lines; type: cell-based; details: mean over the lines of Table 9; ADC concentrations represented by the drug component; read-out: IC50 Mean (all lines)
Procedure: as §3, §4

SU-DHL-1 = experiment: In vitro growth inhibition (Alamar Blue); type: cell-based, human; details: 96 h, ADC concentrations represented by the drug component
Procedure: as §3, §4

HDLM-2 = experiment: In vitro growth inhibition (Alamar Blue); type: cell-based, human; details: 96 h, ADC concentrations represented by the drug component
Procedure: as §3, §4

SR-786 = experiment: In vitro growth inhibition (Alamar Blue); type: cell-based, human; details: 96 h, ADC concentrations represented by the drug component
Procedure: as §3, §4

KMH-2 = experiment: In vitro growth inhibition (Alamar Blue); type: cell-based, human; details: 96 h, ADC concentrations represented by the drug component
Procedure: as §3, §4

SUP-M2 = experiment: In vitro growth inhibition (Alamar Blue); type: cell-based, human; details: 96 h, ADC concentrations represented by the drug component
Procedure: as §3, §4

L428 = experiment: In vitro growth inhibition (Alamar Blue); type: cell-based, human; details: 96 h, ADC concentrations represented by the drug component
Procedure: as §3, §4

DEL = experiment: In vitro growth inhibition (Alamar Blue); type: cell-based, human; details: 96 h, ADC concentrations represented by the drug component
Procedure: as §3, §4

WSU-NHL = experiment: In vitro growth inhibition (Alamar Blue), CD30 negative line; type: cell-based, human; details: 96 h, ADC concentrations represented by the drug component
Procedure: as §3, §4

| SMILES | Fold Resistance NCI-H69/LX4 / NCI-H69 (NCI-H69 and NCI-H69/LX-4) [fold] | Fold Resistance A2780adr / A2780 (A2780 and A2780adr) [fold] | Fold Difference (NCI/ADR-RES cells) [fold] | Fold Difference [1] | Mean Fold Resistance [2] [fold] | Fold Resistance MES-SA/Dx5 / MES-SA (MES-SA and MES-SA/Dx5) [fold] | Fold Resistance HL60/RV / HL60 (HL60 and HL60/RV) [fold] | IC50 [4] [nM] | IC50 [5] [nM] | IC50 [6] [nM] | IC50 (Karpas 299 cells; Table 8, free auristatins) [nM] | further results |
| --- | --- | --- | --- | --- | --- | --- | --- | --- | --- | --- | --- | --- |
| N.N.[Cl][Pt][Cl] [Cisplatin] | 4.7 | 2.7 | 0.88 | 1.04 fold | 5.5 | 1.6 | 13 |  |  |  |  | difference in sensitivity of parent and resistant line [2]: thirteen |
| CC[C@H](C)[C@@H]([C@@H](CC(=O)N1CCC[C@H]1[C@H](OC)[C@@H](C)C(=O)N[C@@H](Cc1ccccc1)c1nccs1)OC)N(C)C(=O)[C@@H](NC(=O)[C@H](C(C)C)N(C)C)C(C)C [Dolastatin 10] |  | 500 |  |  | >500 | 8275 |  |  |  |  |  |  |
| COc1cccc2c1C(=O)c1c(O)c3c(c(O)c1C2=O)C[C@@](O)(C(=O)CO)C[C@@H]3O[C@H]1C[C@H](N)[C@H](O)[C@H](C)O1 [Doxorubicin] | 103 | 137 | 17.9 | 5.4 fold | 88 | 83 | 24 |  |  |  |  | fold less sensitive H69/LX-4 compared to the parental cell (H69 and H69/LX4): approximately 100 fold; IC50 ([3]; Homo sapiens): 62 nM; IC50 (NCI/ADR-RES cells; 96 h, read-out: IC50 Drug or ADC Only): 10000 nM; IC50 (NCI/ADR-RES cells; read-out: IC50 (Drug or ADC) + 10 μM Verapamil): 560 nM; IC50 ([1]; Homo sapiens): 335 nM |
| CC[C@H](C)[C@@H]([C@@H](CC(=O)N1CCC[C@H]1[C@H](OC)[C@@H](C)C(=O)N[C@H](C)[C@@H](O)c1ccccc1)OC)N(C)C(=O)[C@@H](NC(=O)[C@@H](NC)C(C)C)C(C)C [MMAE, reference compound] (H-[NMeV]V[Dil][Dolaproine]-X1) |  |  |  |  |  |  |  | 2 | 0.7 | 0.1 | 0.5 | IC50 (hematologic cell lines): 1 to 5 nM; maximum tolerated dose in mice [7]: 1 mg/kg |
| CC[C@H](C)[C@@H]([C@@H](CC(=O)N1CCC[C@H]1[C@H](OC)[C@@H](C)C(=O)N[C@@H](Cc1ccccc1)C(=O)O)OC)N(C)C(=O)[C@@H](NC(=O)[C@@H](NC)C(C)C)C(C)C [MMAF, N-methylvaline-valine-dolaisoleuine-dolaproline-phenylalanine] (H-[NMeV]V[Dil][Dolaproine]F-OH) | 4 | 7.5 | 6.4 | 5.7 fold | 5 | 3 | 6 | 257 | 200 | 105 | 119 | fold less sensitive H69/LX-4 compared to the parental cell (H69 and H69/LX4): 3 fold; IC50 [3]: 174 nM; aqueous solubility compared to MMAE (Aqueous solubility): much higher; IC50 [1]: 1000 nM; IC50 (L540cy): 70.4 nM; IC50 (RPMI 6666): 164 nM; IC50 (HH): 30.7 nM; difference in sensitivity of parent and resistant line [2]: thirteen; IC50 [8]: 70.4 nM; IC50 (SU-DHL-1): 34.7 nM; IC50 (HDLM-2): 66 nM; IC50 (SR-786): 38.1 nM; IC50 (KMH-2): 45.4 nM; IC50 (SUP-M2): 79.7 nM; IC50 (L428): 68 nM; IC50 (DEL): 69 nM; IC50 (Karpas 299 cells; ADC concentrations represented by the drug component): 119 nM; IC50 (WSU-NHL): 60.3 nM; maximum tolerated dose in mice [7]: > 16 mg/kg |
| CC[C@H](C)[C@@H]([C@@H](CC(=O)N1CCC[C@H]1[C@H](OC)[C@@H](C)C(=O)N[C@@H](Cc1ccccc1)C(=O)OC)OC)N(C)C(=O)[C@@H](NC(=O)[C@@H](NC)C(C)C)C(C)C [MMAF-OMe] (H-[NMeV]V[Dil][Dolaproine]F-OMe) |  |  |  |  |  |  |  | 0.01 | < 0.001 | < 0.001 | < 0.001 |  |
| CC[C@]1(O)C[C@H]2CN(CCc3c([nH]c4ccccc34)[C@@](C(=O)OC)(c3cc4c(cc3OC)N(C=O)[C@H]3[C@@](O)(C(=O)OC)[C@H](OC(C)=O)[C@]5(CC)C=CCN6CC[C@]43[C@@H]65)C2)C1 [Vincristine] | 56888 | 2000 |  | >10,000 fold | >260 | 284 | 258 |  |  |  |  | IC50 ([3]; Homo sapiens): < 0.001 nM; IC50 ([1]; Homo sapiens): 70 nM |
